The results in this text go back to US20170198006A1, “PRMT5 INHIBITORS AND USES THEREOF” (Epizyme, Inc., priority 2014, published 2017).

pEC50, pIC50: −log10 of the molar value.

One assay deals with T1, PRMT5/MEP50 (Homo sapiens, UniProt O14744).
T1 construct: Flag-PRMT5; made in house; host or cells: Spodoptera frugiperda (SF9), baculovirus
Description: PRMT5 Biochemical Assay (PRMT5/MEP50 enzyme assay on histone H4 peptide substrate, 3H-SAM Flashplate). The settings on record: PRMT5 biochemical assay; read-out: Biochemical IC50. The essentials:
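Sf9-expressed Flag-PRMT5/6His-MEP50 preincubated with compound 30 min at 25 °C, then methylation of biotinylated H4 1-15 peptide started with ³H-SAM in 20 mM Bicine pH 7.6, 1 mM TCEP, 0.005% BSG, 0.002% Tween20.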

The test system of assay [1] is symmetric di-methyl arginine in Z-138 cells. Description: Z-138 Methylation Assay (In Cell Western for symmetric di-methyl arginine and DNA content). Type of assay: cell-based. The conditions noted are these: Homo sapiens, read-out: ICW EC50. An excerpt: Z-138 suspension cells were purchased from ATCC (American Type Culture Collection, Manassas, Va.). RPMI/Glutamax medium, penicillin-streptomycin, heat inactivated fetal bovine serum, and D-PBS were purchased from Life Technologies, Grand Island, N.Y., USA. Odyssey blocking buffer, 800CW goat anti-rabbit IgG (H+L) antibody, and Licor Odyssey infrared scanner were purchased from Licor Biosciences, Lincoln, Nebr., USA. Symmetric di-methyl arginine antibody was purchased from EMD Millipore, Billerica, Mass., USA. 16% Paraformaldehyde was purchased from Electron Microscopy Sciences, Hatfield, Pa., USA.
Z-138 suspension cells were maintained in growth medium (RPMI 1640 supplemented with 10% v/v heat inactivated fetal bovine serum and 100 units/mL penicillin-streptomycin) and cultured at 37° C. under 5% CO2.
Cell Treatment, in Cell Western (ICW) for Detection of Symmetric Di-Methyl Arginine and DNA Content.
Z-138 cells were seeded in assay medium at a concentration of 50,000 cells per mL to a 384-well cell culture plate with 50 μL per well. Compound (100 nL) from 384 well source plates was added directly to 384 well cell plate. Plates were incubated at 37° C., 5% CO2 for 96 hours. After four days of incubation, 40 μL of cells from incubated plates were added to poly-D-lysine coated 384 well culture plates (BD Biosciences 356697). Plates were incubated at room temperature for 30 minutes then incubated at 37° C., 5% CO2 for 5 hours. After the incubation, 40 μL per well of 8% paraformaldehyde in PBS (16% paraformaldahyde was diluted to 8% in PBS) was added to each plate and incubated for 30 minutes. Plates were transferred to a Biotek 405 plate washer and washed 5 times with 100 μL per well of wash buffer (1×PBS with 0.1% Triton X-100 (v/v)). Next 30 μL per well of Odyssey blocking buffer were added to each plate and incubated 1 hour at room temperature. Blocking buffer was removed and 20 μL per well of primary antibody was added (symmetric di-methyl arginine diluted 1:100 in Odyssey buffer with 0.1% Tween 20 (v/v)) and plates were incubated overnight (16 hours) at 4° C. Plates were washed 5 times with 100 μL per well of wash buffer. Next 20 μL per well of secondary antibody was added (1:200 800CW goat anti-rabbit IgG (H+L) antibody, 1:1000 DRAQ5 (Biostatus limited) in Odyssey buffer with 0.1% Tween 20 (v/v)) and incubated for 1 hour at room temperature. The plates were washed 5 times with 100 μL per well wash buffer then 1 time with 100 μL per well of water. Plates were allowed to dry at room temperature then imaged on the Licor Odyssey machine which measures integrated intensity at 700 nm and 800 nm wavelengths. Both 700 and 800 channels were scanned.
First, the ratio for each well was determined by:
Each plate included fourteen control wells of DMSO only treatment (minimum inhibition) as well as fourteen control wells for maximum inhibition treated with 3 μM of a reference compound (Background wells). The average of the ratio values for each control type was calculated and used to determine the percent inhibition for each test well in the plate. Reference compound was serially diluted three-fold in DMSO for a total of nine test concentrations, beginning at 3 μM. Percent inhibition was determined and IC50 curves were generated using triplicate wells per concentration of compound.

In another assay the test system is Z-138 cells. Description: Z-138 Proliferation Assay (Cell Titer Glo, 5 days). The format is cell-based. The conditions noted are these: Homo sapiens, 120 h. An excerpt: Z-138 Proliferation Assay
Z-138 suspension cells were purchased from ATCC (American Type Culture Collection, Manassas, Va.). RPMI/Glutamax medium, penicillin-streptomycin, heat inactivated fetal bovine serum were purchased from Life Technologies, Grand Island, N.Y., USA. V-bottom polypropylene 384-well plates were purchased from Greiner Bio-One, Monroe, N.C., USA. Cell culture 384-well white opaque plates were purchased from Perkin Elmer, Waltham, Mass., USA. Cell-Titer Glo® was purchased from Promega Corporation, Madison, Wis., USA. SpectraMax M5 plate reader was purchased from Molecular Devices LLC, Sunnyvale, Calif., USA.
Z-138 suspension cells were maintained in growth medium (RPMI 1640 supplemented with 10% v/v heat inactivated fetal bovine serum and cultured at 37° C. under 5% CO2. Under assay conditions, cells were incubated in assay medium (RPMI 1640 supplemented with 10% v/v heat inactivated fetal bovine serum and 100 units/mL penicillin-streptomycin) at 37° C. under 5% CO2.
For the assessment of the effect of compounds on the proliferation of the Z-138 cell line, exponentially growing cells were plated in 384-well white opaque plates at a density of 10,000 cells/ml in a final volume of 50 μl of assay medium. A compound source plate was prepared by performing triplicate nine-point 3-fold serial dilutions in DMSO, beginning at 10 mM (final top concentration of compound in the assay was 20 μM and the DMSO was 0.2%). A 100 nL aliquot from the compound stock plate was added to its respective well in the cell plate. […] After addition of compounds, assay plates were incubated for 5 days at 37° C., 5% CO2, relative humidity >90%.
Cell viability was measured by quantitation of ATP present in the cell cultures, adding 35 μl of Cell Titer Glo® reagent to the cell plates. Luminescence was read in the SpectraMax M5 microplate reader. The concentration of compound inhibiting cell viability by 50% was determined using a 4-parametric fit of the normalized dose response curves.

T1 sequence (O14744 with tags, fused parts or gaps): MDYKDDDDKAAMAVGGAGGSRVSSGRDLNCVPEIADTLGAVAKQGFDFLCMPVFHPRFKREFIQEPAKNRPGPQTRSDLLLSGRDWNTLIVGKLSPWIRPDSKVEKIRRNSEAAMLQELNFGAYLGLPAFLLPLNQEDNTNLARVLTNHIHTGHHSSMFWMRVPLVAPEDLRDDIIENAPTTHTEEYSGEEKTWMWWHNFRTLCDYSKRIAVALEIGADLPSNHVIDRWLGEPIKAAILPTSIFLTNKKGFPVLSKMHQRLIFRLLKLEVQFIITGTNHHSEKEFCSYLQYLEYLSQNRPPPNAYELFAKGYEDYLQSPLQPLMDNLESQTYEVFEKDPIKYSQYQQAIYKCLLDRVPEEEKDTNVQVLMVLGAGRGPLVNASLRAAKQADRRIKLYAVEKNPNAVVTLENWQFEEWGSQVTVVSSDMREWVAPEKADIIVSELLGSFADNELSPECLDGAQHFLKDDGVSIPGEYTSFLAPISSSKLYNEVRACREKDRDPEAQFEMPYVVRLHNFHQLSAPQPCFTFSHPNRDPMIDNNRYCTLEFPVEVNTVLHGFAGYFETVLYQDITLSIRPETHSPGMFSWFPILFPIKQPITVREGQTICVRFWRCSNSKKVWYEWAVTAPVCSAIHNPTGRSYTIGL
T1 sequence (Q9BQA1 with tags, fused parts or gaps partner limits assumed): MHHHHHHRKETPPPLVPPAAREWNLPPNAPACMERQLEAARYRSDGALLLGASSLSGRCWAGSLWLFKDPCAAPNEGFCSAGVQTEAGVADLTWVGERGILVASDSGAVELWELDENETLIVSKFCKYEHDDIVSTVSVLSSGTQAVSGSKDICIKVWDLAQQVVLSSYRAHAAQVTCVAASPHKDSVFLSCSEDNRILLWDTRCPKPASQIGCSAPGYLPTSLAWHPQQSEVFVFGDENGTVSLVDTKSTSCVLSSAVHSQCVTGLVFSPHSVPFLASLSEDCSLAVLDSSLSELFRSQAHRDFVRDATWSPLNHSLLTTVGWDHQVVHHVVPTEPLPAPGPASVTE

With `NCc1nccn1Cc1cccc(Cl)c1` [Compound 2-13], the negative logarithm of the IC50 (pIC50) – broadly, the negative decadic logarithm of the IC50, by convention in mol/L – on PRMT5/MEP50 is 5.00 to 6.00. Moreover, the pEC50 (as a rule, the negative decadic logarithm of the EC50, by convention in mol/L) in assay [1] was less than 6.00; in the assay with Z-138 cells, less than 5.30.

Turning to `CN(C)c1cccc2c(S(=O)(=O)NCCC(N)Cc3ccccc3)cccc12` (stereo not drawn) [Compound 2-7, N-(3-amino-4-phenylbutyl)-5-(dimethylamino)naphthalene-1-sulfonamide], the pIC50 at PRMT5/MEP50 was more than 7.00. Further, the negative logarithm of the EC50 (pEC50) was 6.00 to 7.00 in assay [1] and 5.00 to 6.00 with Z-138 cells.

Take `CC(=O)N1CCC(Nc2cc(C(=O)N(C)C[C@H](O)CN3CCc4ccccc4C3)ccn2)CC1` [Compound 10-9]: the pIC50 at PRMT5/MEP50 is more than 7.00. Further, the figures for the pEC50 (in assay [1]; in the assay with Z-138 cells) were more than 7.00 and 6.00 to 7.00, respectively.

Consider `O=C(NC[C@H](O)CN1Cc2ccccc2C1)c1cc(NC2CNC2)ncn1` [Compound 4-11], for which the pIC50 at PRMT5/MEP50 is 6.00 to 7.00. Also, the pEC50 was 6.00 to 7.00 in assay [1] and less than 6.00 with Z-138 cells.

For `CC(=O)N1CCC(Nc2cc(C(=O)NC[C@@H](O)CN3CCc4ccccc4C3(C)C)ccn2)CC1` [Compound 13-9], on PRMT5/MEP50, the pIC50 was 6.00 to 7.00. In addition, the pEC50 was 6.00 to 7.00 in assay [1] and 5.00 to 6.00 in the assay with Z-138 cells.

Turning to `CC(C)(C)C(=O)N1CCN(c2nc(NC3COC3)cc(C(=O)NC[C@H](O)CN3CCc4ccccc4C3)n2)CC1` [Compound 4-9], the pIC50 on PRMT5/MEP50 was more than 7.00. In addition, the pEC50 (in assay [1]; in the assay on Z-138 cells) was more than 7.00 each time.

With `CC1CC(Nc2cccc(C(=O)NC[C@H](O)CN3CCc4ccccc4C3)c2)CC(C)O1` (stereo partly drawn) [Compound 2-9], the pIC50 on PRMT5/MEP50 was more than 7.00. Moreover, the pEC50 in assay [1] was more than 7.00; in the assay on Z-138 cells, 6.00 to 7.00.

With `CN(C)c1cccc2c(S(=O)(=O)N[C@H]3CCN(Cc4ccccc4)C3)cccc12` [Compound 2-5, (S)—N-(1-benzylpyrrolidin-3-yl)-5-(dimethylamino)naphthalene-1-sulfonamide], at PRMT5/MEP50, the pIC50 is more than 7.00. Also, the pEC50 was 6.00 to 7.00 in assay [1] and less than 4.70 in the assay with Z-138 cells.

Regarding `CN(C)c1cccc2c(S(=O)(=O)NC3CC(=O)N(c4ccccc4N)C3)cccc12` (stereo not drawn) [Compound 7-4], on PRMT5/MEP50, the pIC50 is more than 7.00. For the same compound, the pEC50 in assay [1] was more than 7.00; with Z-138 cells, 5.00 to 6.00.

As to `Cc1cn(Cc2ccccc2)c(CN)n1` [Compound 3-13], the pIC50 on PRMT5/MEP50 was 6.00 to 7.00. The results for the pEC50 (in assay [1]; in the assay on Z-138 cells) were less than 6.00 and less than 5.30, respectively.

In the case of `CN(C)c1cccc2c(S(=O)(=O)NC3CCN(Cc4ccccc4)CC3)cccc12` [Compound 14-3], the pIC50 on PRMT5/MEP50 was more than 7.00. In addition, the pEC50 in assay [1] was 5.00 to 6.00; in the assay with Z-138 cells, less than 4.70.

Consider `Nc1ncnc2c1ncn2[C@@H]1O[C@H](CSCC[C@@H](N)CO)[C@@H](O)[C@H]1O` [Compound 92-1, (2S, 3S, 4R, 5R)-2-((((R)-3-amino-4-hydroxybutyl)thio)methyl)-5-(6-amino-9H-purin-9-yl)tetrahydrofuran-3,4-diol], for which the pIC50 on PRMT5/MEP50 is more than 7.00. Also, the pEC50 in assay [1] was 5.00 to 6.00; in the assay on Z-138 cells, 4.30 to 5.00.

Consider `COc1ccc(Cn2c(CN3CCCCC3)cnc2CN)cc1` [Compound 4-13], for which, at PRMT5/MEP50, the pIC50 was 4.30 to 5.00. Also, the pEC50 in assay [1] was less than 6.00; in the assay with Z-138 cells, less than 5.30.

On to `Cc1ccc(C(=O)CC2NC(N3CCN(c4ccccc4)CC3)=NC2=O)cc1` (stereo not drawn) [Compound 1-14], for which the pIC50 on PRMT5/MEP50 was 6.00 to 7.00. Further, the figures for the pEC50 (in assay [1]; with Z-138 cells) were 5.00 to 6.00 and less than 4.70, respectively.

`CN(C)c1cccc2c(S(=O)(=O)NC3CC(=O)N(c4ccccc4F)C3)cccc12` (stereo not drawn) [Compound 5-4]: on PRMT5/MEP50, the pIC50 was more than 7.00. Besides, the pEC50 in assay [1] was 6.00 to 7.00; with Z-138 cells it was 5.00 to 6.00.

As to `CC(=O)N1CC(Nc2cc(C(=O)NC[C@@H](O)CN3CCc4ccccc4C3)ncn2)C1` [Compound 7-9], the pIC50 at PRMT5/MEP50 was more than 7.00. The pEC50 is more than 7.00 in assay [1] and 5.00 to 6.00 in the assay with Z-138 cells.

As for `CN1CCC(NC2=NN(C)CC(C(=O)NC[C@H](O)CN3CCc4ccccc4C3)C2)C1` (stereo partly drawn) [1-12], the pIC50 at PRMT5/MEP50 is more than 7.00. In addition, the pEC50 in assay [1] was 6.00 to 7.00; in the assay with Z-138 cells, less than 5.30.
